Molecular target: LRRK2 (Homo sapiens (Human), UniProt Q5S007, G2019S)
Test: In Vitro LRRK2 LabChip Assay (LRRK2 Ki)
Assay type: biochemical
Experimental: In Vitro LRRK2 LabChip Assay
This assay was used to determine a compound's potency in inhibiting activity of LRRK2 by determining, Kiapp, IC50, or percent inhibition values. In a polypropylene plate, LRRK2, fluorescently-labeled peptide substrate, ATP and test compound were incubated together. Using a LabChip 3000 (Caliper Life Sciences), after the reaction the substrate was separated by capillary electrophoresis into two populations: phosphorylated and unphosphorylated. The relative amounts of each were quantitated by fluorescence intensity. LRRK2 Ki was determined according to the equation: Y=V0*(1−((x+Ki*(1+S/Km)+Et)/(2*Et)−(((x+Ki*(1+S/Km)+Et)^2−(4*Et*x))^0.5)/(2*Et))). Ki values in Table 4 and elsewhere herein are shown in μM.
Assay conditions and materials used were as follows:
Kinase reaction time: 2 hours
Wild type in 5 mM MgCl2: 80 μM
Solid Support: Black 50 μL volume polypropylene 384 well plate (MatriCal cat #MP101-1-PP)
Non-binding plate: 384 well clear V-bottom polypropylene plates (Greiner cat #781280).
ATP: 10 mM ATP (Cell Signaling cat #9804).
Coating Reagent #3: Coating Reagent #3 (Caliper).
Complete Reaction Buffer: H2O/25 mM Tris, pH 8.0/5 mM MgCl2/2 mM DTT/0.01% Triton X-100.
Stop Solution: H2O/100 mM HEPES, pH 7.2/0.015% Brij-35/0.2% Coating Reagent #3/20 mM EDTA.
Separation Buffer: H2O/100 mM HEPES, pH 7.2/0.015% Brij-35/0.1% Coating Reagent #3/1:200 Coating Reagent #8/10 mM EDTA/5% DMSO.
Compound Plate Preparation:
For serial dilutions, 34.6 μl DMSO was added to columns 3-24. For the assay controls, 37.5 μl DMSO was added to columns 1 and 2 of rows A and P. a,d and 50 μl 25 μM G-028831 (Staurosporine) was added to columns 1 and 2, row B. For the samples: to start at 100 μM, 37.5 μl DMSO was to columns 1 and 2, then 12.5 μl 10 mM compound; to start at 10 μM, 78 μl DMSO was added to columns 1 & 2, then 2 μl 10 mM compound; and to start at 1 μM, 25 μM compound (2 μl 10 mM cmpd+798 μl DMSO) was added to empty columns 1 and 2. A Precision instrument was used to perform 1:3.16 serial dilutions (“PLK_BM_serial_halflog”).
ATP was diluted to 282.1 μM in Complete Kinase Buffer (final concentration was 130 μM).
Total and Blank Preparation:
In Complete Reaction Buffer, substrate was diluted to 4 μM. Equal volumes of Complete Reaction Buffer and 4 μM substrate were combined to obtain the blank. Equal volumes of Complete Reaction Buffer and 4 μM substrate were combined and to the combined solution was added 2× final LRRK2 concentration.
To a 50 μl polypropylene plate, 5 μl/well buffer/substrate was added by hand to Blank wells. A Biomek FX was used to start the kinase reaction (“PLK SAR 23 ATP”). The following were added to the appropriate wells:
5 μl/well compound/ATP in Assay Plate;
5 μl/well kinase/substrate in Assay Plate;
The plate was incubated for 2 hours in the dark. Biomek FX was used to stop the kinase reaction (“PLK Stop”), and 10 μl/well Stop solution was added to the Assay Plate. Results were read on the LabChip 3000.
The LabChip 3000 was run using the job “LRRK2 IC50” with the following job settings:
Downstream voltage: −500 V
Upstream voltage: −2350 V
Post sample buffer sip time: 75 seconds
Post dye buffer sip time: 75 seconds
Final delay time: 200 seconds

Chain of LRRK2 (Q5S007 970-2527 G2019S): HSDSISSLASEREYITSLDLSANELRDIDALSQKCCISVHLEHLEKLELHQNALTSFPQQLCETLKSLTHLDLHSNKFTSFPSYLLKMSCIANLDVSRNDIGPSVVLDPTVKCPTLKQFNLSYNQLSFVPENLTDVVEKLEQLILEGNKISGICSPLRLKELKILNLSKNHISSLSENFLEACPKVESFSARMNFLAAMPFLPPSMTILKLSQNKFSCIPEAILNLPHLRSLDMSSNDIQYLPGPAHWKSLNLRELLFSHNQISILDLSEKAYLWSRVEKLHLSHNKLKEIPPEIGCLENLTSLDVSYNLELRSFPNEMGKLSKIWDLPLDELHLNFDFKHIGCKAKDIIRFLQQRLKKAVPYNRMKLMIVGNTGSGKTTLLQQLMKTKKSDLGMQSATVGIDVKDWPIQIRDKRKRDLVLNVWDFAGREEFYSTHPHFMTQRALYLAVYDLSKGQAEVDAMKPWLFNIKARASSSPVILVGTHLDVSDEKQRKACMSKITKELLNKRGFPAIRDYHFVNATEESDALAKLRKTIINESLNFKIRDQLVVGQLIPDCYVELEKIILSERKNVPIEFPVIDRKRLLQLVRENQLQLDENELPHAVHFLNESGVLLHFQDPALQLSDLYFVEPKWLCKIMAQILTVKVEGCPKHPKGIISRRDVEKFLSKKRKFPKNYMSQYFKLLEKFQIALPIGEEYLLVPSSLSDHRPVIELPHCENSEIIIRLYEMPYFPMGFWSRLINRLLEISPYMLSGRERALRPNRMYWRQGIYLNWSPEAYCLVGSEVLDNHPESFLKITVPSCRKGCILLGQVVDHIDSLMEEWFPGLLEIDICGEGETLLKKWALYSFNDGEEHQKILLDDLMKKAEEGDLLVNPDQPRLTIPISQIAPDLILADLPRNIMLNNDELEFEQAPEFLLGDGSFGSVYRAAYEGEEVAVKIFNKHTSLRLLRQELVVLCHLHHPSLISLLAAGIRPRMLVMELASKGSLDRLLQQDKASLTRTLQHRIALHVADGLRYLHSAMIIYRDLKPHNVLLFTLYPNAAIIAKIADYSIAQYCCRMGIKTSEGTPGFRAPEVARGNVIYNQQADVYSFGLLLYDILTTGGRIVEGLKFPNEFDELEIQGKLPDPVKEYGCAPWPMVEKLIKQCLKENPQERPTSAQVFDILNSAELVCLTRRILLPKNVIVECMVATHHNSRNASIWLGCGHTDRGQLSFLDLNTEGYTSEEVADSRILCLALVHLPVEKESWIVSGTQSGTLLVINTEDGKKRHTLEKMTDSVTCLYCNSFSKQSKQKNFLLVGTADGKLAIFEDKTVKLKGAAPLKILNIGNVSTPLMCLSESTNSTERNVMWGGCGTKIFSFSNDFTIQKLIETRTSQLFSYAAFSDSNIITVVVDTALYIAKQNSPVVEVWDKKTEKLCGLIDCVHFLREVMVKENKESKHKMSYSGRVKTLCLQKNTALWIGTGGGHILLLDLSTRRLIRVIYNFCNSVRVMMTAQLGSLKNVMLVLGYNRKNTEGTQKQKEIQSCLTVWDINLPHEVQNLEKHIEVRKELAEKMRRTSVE

Q: CNc1nc(Nc2cc(F)c(N3CCOCC3=O)cc2OC)ncc1C(F)(F)F [Example 31, 4-(2-fluoro-5-methoxy-4-(4-(methylamino)-5-(trifluoromethyl)pyrimidin-2-ylamino)phenyl)morpholin-3-one] was tested. Which Ki did it give?
A: 3 nM

Q: CNc1nc(Nc2cc(C)c(S(C)(=O)=O)cc2OC)ncc1C(F)(F)F [Example 36, N2-(2-methoxy-5-methyl-4-(methylsulfonyl)phenyl)-N4-methyl-5-(trifluoromethyl)pyrimidine-2,4-diamine] was tested. Which Ki did it give?
A: 3 nM

Q: For CNc1nc(Nc2ccc(N3CCOCC3)cc2OC)ncc1Cl [Example 24, 5-chloro-N2-(2-methoxy-4-morpholinophenyl)-N4-methylpyrimidine-2,4-diamine], which Ki is on record?
A: 9 nM

Q: How did the Ki turn out when CNc1nc(Nc2cc(F)c(S(C)(=O)=O)cc2OC)ncc1C(F)(F)F [Example 15, N2-(5-Fluoro-4-methanesulfonyl-2-methoxy-phenyl)-N4-methyl-5-trifluoromethyl-pyrimidine-2,4-diamine] was run?
A: 3 nM

Q: Which Ki does the source give for CNc1nc(Nc2cc(C)c(S(C)(=O)=O)cc2OC)ncc1C(F)(F)F [Example 23, N2-(4-Methanesulfonyl-2-methoxy-5-methyl-phenyl)-N4-methyl-5-trifluoromethyl-pyrimidine-2,4-diamine] here?
A: 0.3 nM

Q: Which Ki does the source give for CNc1nc(Nc2cc(F)c(CN3CCOCC3)cc2OCCF)ncc1C(F)(F)F [Example 21, N2-[5-Fluoro-2-(2-fluoro-ethoxy)-4-morpholin-4-ylmethyl-phenyl]-N4-methyl-5-trifluoromethyl-pyrimidine-2,4-diamine] here?
A: 4 nM

Q: CNc1nc(Nc2cc(Cl)c(C(=O)O)cc2OC)ncc1Cl [Example 29, 2-chloro-4-(5-chloro-4-(methylamino)pyrimidin-2-ylamino)-5-methoxybenzoic acid] was tested. Which Ki did it give?
A: 36 nM

Q: For CNc1nc(Nc2cc(F)c(C#N)cc2OC)ncc1C(F)(F)F [Example 3, 2-Fluoro-5-methoxy-4-(4-(methylamino)-5-(trifluoromethyl)pyrimidin-2-ylamino)benzonitrile], which Ki is on record?
A: 22 nM

Q: For CNc1nc(Nc2ccc(C#N)cc2OC)ncc1Cl [Example 5, 4-(5-Chloro-4-(methylamino)pyrimidin-2-ylamino)-3-methoxybenzonitrile], which Ki is on record?
A: 8 nM

Q: How did the Ki turn out when CNc1nc(Nc2ccc(C(=O)O)cc2OC)ncc1Cl [Example 25, 4-(5-chloro-4-(methylamino)pyrimidin-2-ylamino)-3-methoxybenzoic acid] was run?
A: 7 nM

Q: For CNc1nc(Nc2ccc(S(C)(=O)=O)cc2Cl)ncc1Cl [Example 8, 5-Chloro-N2-(2-chloro-4-methanesulfonyl-phenyl)-N4-methyl-pyrimidine-2,4-diamine], which Ki is on record?
A: 8 nM

Q: How did the Ki turn out when CNc1nc(Nc2cc(F)c(N3CCCC3=O)cc2OC)ncc1C(F)(F)F [Example 30, 1-(2-fluoro-5-methoxy-4-(4-(methylamino)-5-(trifluoromethyl)pyrimidin-2-ylamino)phenyl)pyrrolidin-2-one] was run?
A: 3 nM

Q: CNc1nc(Nc2ccc(S(C)(=O)=O)cc2OC)ncc1Cl [Example 2, 5-Chloro-N2-(2-methoxy-4-(methylsulfonyl)phenyl)-N4-methylpyrimidine-2,4-diamine] was tested. Which Ki did it give?
A: 2 nM

Q: How did the Ki turn out when CCNc1nc(Nc2cc(F)c(CN3CCOCC3)cc2OC)ncc1C#N [Example 12, 4-Ethylamino-2-(5-fluoro-2-methoxy-4-morpholin-4-ylmethyl-phenylamino)-pyrimidine-5-carbonitrile] was run?
A: 14 nM

Q: How did the Ki turn out when CNc1nc(Nc2cc(C)c(C#N)cc2OC)ncc1C(F)(F)F [Example 13, 5-Methoxy-2-methyl-4-(4-methylamino-5-trifluoromethyl-pyrimidin-2-ylamino)-benzonitrile] was run?
A: 12 nM

Q: CCS(=O)(=O)c1cc(OC)c(Nc2ncc(C(F)(F)F)c(NC)n2)cc1C [Example 35, N2-(4-(ethylsulfonyl)-2-methoxy-5-methylphenyl)-N4-methyl-5-(trifluoromethyl)pyrimidine-2,4-diamine] was tested. Which Ki did it give?
A: 3 nM

Q: CNc1nc(Nc2cc(C)c(C#N)cc2Cl)ncc1C(F)(F)F [Example 10, 5-Chloro-2-methyl-4-(4-methylamino-5-trifluoromethyl-pyrimidin-2-ylamino)-benzonitrile] was tested. Which Ki did it give?
A: 46 nM

Q: How did the Ki turn out when CNc1nc(Nc2ccc(CN3CCOCC3)cc2OC)ncc1C(F)(F)F [Example 9, N2-(2-Methoxy-4-morpholin-4-ylmethyl-phenyl)-N4-methyl-5-trifluoromethyl-pyrimidine-2,4-diamine] was run?
A: 3 nM

Q: With CCNc1nc(Nc2cc(C)c(S(C)(=O)=O)cc2OC)ncc1C(F)(F)F [Example 34, N4-ethyl-N2-(2-methoxy-5-methyl-4-(methylsulfonyl)phenyl)-5-(trifluoromethyl)pyrimidine-2,4-diamine] as the compound, how does the Ki read?
A: 3 nM

Q: How did the Ki turn out when CNc1nc(Nc2ccc(S(C)(=O)=O)cc2OCCF)ncc1C(F)(F)F [Example 19, N2-[2-(2-Fluoro-ethoxy)-4-methanesulfonyl-phenyl]-N4-methyl-5-trifluoromethyl-pyrimidine-2,4-diamine] was run?
A: 3 nM

Q: For CNc1nc(Nc2ccc(S(C)(=O)=O)cc2Cl)ncc1C(F)(F)F [Example 7, N2-(2-Chloro-4-methanesulfonyl-phenyl)-N4-methyl-5-trifluoromethyl-pyrimidine-2,4-diamine], which Ki is on record?
A: 8 nM

Q: CNc1nc(Nc2ccc(S(C)(=O)=O)cc2OCCF)ncc1Cl [Example 17, 5-Chloro-N2-[2-(2-fluoro-ethoxy)-4-methanesulfonyl-phenyl]-N4-methyl-pyrimidine-2,4-diamine] was tested. Which Ki did it give?
A: 12 nM

Q: With COc1nc(Nc2ccc(S(C)(=O)=O)cc2OCCF)ncc1Cl [Example 18, (5-Chloro-4-methoxy-pyrimidin-2-yl)-[2-(2-fluoro-ethoxy)-4-methanesulfonyl-phenyl]-amine] as the compound, how does the Ki read?
A: 12 nM

Q: COc1nc(Nc2ccc(S(C)(=O)=O)cc2Cl)ncc1Cl [Example 6, (2-Chloro-4-methanesulfonyl-phenyl)-(5-chloro-4-methoxy-pyrimidin-2-yl)-amine] was tested. Which Ki did it give?
A: 61 nM

Q: CNc1nc(Nc2ccc(S(C)(=O)=O)cc2OC)ncc1C(F)(F)F [Example 1, N2-(2-Methoxy-4-(methylsulfonyl)phenyl)-N4-methyl-5-(trifluoromethyl)pyrimidine-2,4-diamine] was tested. Which Ki did it give?
A: 2 nM

Q: For CNc1nc(Nc2cc(F)c(CN3CCOCC3)cc2OC)ncc1C#N [Example 11, 2-(5-Fluoro-2-methoxy-4-morpholin-4-ylmethyl-phenylamino)-4-methylamino-pyrimidine-5-carbonitrile], which Ki is on record?
A: 27 nM

Q: For CNc1nc(Nc2cc(F)c(CN3CCOCC3)cc2OC)ncc1C(F)(F)F [Example 37, N2-(5-fluoro-2-methoxy-4-(morpholinomethyl)phenyl)-N4-methyl-5-(trifluoromethyl)pyrimidine-2,4-diamine], which Ki is on record?
A: 56 nM

Q: CNc1nc(Nc2cc(Cl)c(S(C)(=O)=O)cc2OC)ncc1C(F)(F)F [Example 20, N2-(5-Chloro-4-methanesulfonyl-2-methoxy-phenyl)-N4-methyl-5-trifluoromethyl-pyrimidine-2,4-diamine] was tested. Which Ki did it give?
A: 1 nM

Q: CCNc1nc(Nc2ccc(S(C)(=O)=O)c3c2OCCO3)ncc1C(F)(F)F [Example 38, N4-ethyl-N2-(8-(methylsulfonyl)-2,3-dihydrobenzo[b][1,4]dioxin-5-yl)-5-(trifluoromethyl)pyrimidine-2,4-diamine] was tested. Which Ki did it give?
A: 3 nM

Q: For CNc1nc(Nc2ccc(S(=O)(=O)N3CCOCC3)cc2OC)ncc1C(F)(F)F [Example 26, N2-(2-methoxy-4-(morpholinosulfonyl)phenyl)-N4-methyl-5-(trifluoromethyl)pyrimidine-2,4-diamine], which Ki is on record?
A: 47 nM

Q: With CNc1nc(Nc2ccc(C(F)(F)F)cc2OC)ncc1Cl [Example 28, 5-chloro-N2-(2-methoxy-4-(trifluoromethyl)phenyl)-N4-methylpyrimidine-2,4-diamine] as the compound, how does the Ki read?
A: 35 nM
